In patent US9901637B2, “Vitamin D3 and analogs thereof for treating alopecia” (priority 2009, dated 2018):

Tests used:
[1] = system: MIAC51; experiment: Survival (cure) rate of chloroleukemic rats after two rounds of chemotherapy; type: in vivo, Long Evans Rats; conditions: rats treated with Cyclophosphamide (CTX), after Two Rounds of Chemotherapy
Method: Animals were then randomized in four groups. All rats received MIAC51 as described below.
On day 5 after birth all rats received 1×105 MIAC51 intraperitoneally in 0.1 ml of serum free (SF) RPMI. MIAC51 were cultured in RPMI 1640 supplemented with L-glutamine and 10% fetal bovine serum at […] in a 5% CO2, 100% humidity incubator. Cells were grown to 50% confluency (1.5×106 ml) collected in 50 ml conical tubes, centrifuged at 600 g for 10 minutes at room temperature and resuspended in SF-RPMI at a concentration of 1×10^6/ml prior to injection.

[2] = system: chemotherapy-induced alopecia (CIA); conditions: neonatal rats, i.p. chemotherapy, recorded 10 days after last dose
Method: Specifically, Long Evans and Sprague Dawley rats with pups were purchased from Harlan Laboratories, Inc. They were housed and fed according to applicable animal handling rules and regulations. Pups were allowed to acclimate for 48 hours prior to the start of experiments. […] Rats were isolated from their littermates and mother for 6-hour periods of time. Subsequently, the treated area was cleaned with soap and water and pups were returned to their litters. On day 13, rats either received etoposide (1.5 mg/kg daily for 3 days) or cyclophosphamide (CTX) (37.5 mg/kg once) or combination cyclophosphamide (35 mg/kg once) and doxorubicin (2.5 mg/kg daily for 3 days). All chemotherapies were purchased from Sigma and were given intraperitoneally (i.p.) in a total volume of 0.1 mL. Alopecia was recorded 10 days after the last dose of chemotherapy.

[3] = system: chemotherapy-induced alopecia (CIA); experiment: Alopecia in chloroleukemic rats receiving multi-course chemotherapy, topical calcitriol; conditions: for Extent of Alopecia: number of rats with grade 4+: rats treated with Cyclophosphamide (CTX), 4+=75-100% alopecia
Source text: Long Evans Rats (Harlan Laboratories, Inc) were 3 days old upon arrival. The weight of the animals was obtained upon arrival and every day until the conclusion of the experiments using an electronic scale (American Scientific Products TL 410s). Rats were housed for two days prior to the beginning of experiments. Animals were then randomized in four groups.
Treatments were started on day 6 after birth. […] Each application entailed rubbing an area of 2 cm^2 for 10 seconds with right index finger covered with a nitrile exam glove. After the completion of the treatments, each rat was individually separated for 6 hours. Subsequently each rat's head and back was washed with mild hand soap (Soft CIDE-EC from VWR International) and distilled water. Pups where then placed back with their mothers and taken back to the animal rooms. For the second anagen cycle, adult rats were placed back in their cages with their littermates and taken back to the animal rooms.
On day 23 after birth, a blood sample was taken from all rats and differentials were performed. Rats with leukemia were sacrificed while rats without leukemia were used for further experiments. A second differential was performed on day 31, and leukemic animals were sacrificed.
Vials of 1 mL were subdivided and kept in the refrigerator at 4° C. […] Unused preparations were disposed of.
For the second course of chemotherapy, rats received 20 mg/kg ADM on days 47 to 49 as described above.

## O=P1(N(CCCl)CCCl)NCCCO1 (centres unmarked) [CTX, cyclophosphamide]
[1]
  Survival Rate, % cured: 20%
[2]
  alopecia in rats receiving chemotherapy without calcitriol: totally alopecic
[3]; chloroleukemic Long Evans rats, after the first round of chemotherapy
  extent of alopecia (grade) in all rats receiving chemotherapy alone: +4
[3]; after First Round of Chemotherapy
  Extent of Alopecia: number of rats with grade 4+: 40
[3]; after Second Round of Chemotherapy
  Extent of Alopecia: number of rats with grade 4+: 8
